Measurements from patent US12016948B2, “Micromotors and nanomotors for gastrointestinal diagnosis and treatment applications” (The Regents of the University of California, priority 2017, dated 2024).
In brackets after ≈: the same amount, converted by molar mass.

System: H. pylori Sydney strain 1 (HPSS1)
Experiment: In vitro bactericidal activity against H. pylori
Format: cell-based
Conditions: Helicobacter pylori; kills 3 logs (99.9%) of bacteria; samples pretreated in 0.1 N HCl 1 h; 24 h incubation; read-out: minimal bactericidal concentration (MBC)
Description: To mimic the gastric environment, for example, samples were treated in 0.1 N HCl for 1 h prior to incubation with bacteria. This also ensured the dissolution of micromotors and consecutive drug release. […] Specifically, it was determined that the minimal bactericidal concentration (MBC) values of the samples, defined as the minimal concentration of an antimicrobial agent that kills 3 logs (99.9%) of the bacteria. […] Moreover, bare Mg-based micromotors with corresponding amount of motors were used as negative controls. […] Overall, FIG. 13D verifies that the activity of the loaded drug was not compromised compared to free drug. The example findings validate the potential use of these drug-loaded micromotors for therapeutic applications. In Vitro Anti-H. pylori Activity. H. pylori Sydney strain 1 (HPSS1) was cultured from frozen stock and routinely maintained on Columbia agar supplemented with 5% (vol/vol) laked horse blood at 37° C. under microaerobic conditions (e.g., 10% CO2, 85% N2, and 5% 02). For example, broth cultures of H. pylori were prepared by subculturing fresh colonies from agar plates into Brain heart infusion (BHI) supplemented with 5% fetal bovine serum (FBS) and incubated overnight at 37° C. under microaerobic conditions with moderate reciprocal shaking. […] The plates were cultured for 4 days before the colony-forming unit (CFU) of H. pylori was quantified. […]

## CC[C@H]1OC(=O)[C@H](C)[C@@H](O[C@H]2C[C@@](C)(OC)[C@@H](O)[C@H](C)O2)[C@H](C)[C@@H](O[C@@H]2O[C@H](C)C[C@H](N(C)C)[C@H]2O)[C@](C)(OC)C[C@@H](C)C(=O)[C@H](C)[C@@H](O)[C@]1(C)O [free CLR, clarithromycin]
  MBC: 0.25 µg/mL (≈ 0.334 µM)
